Measurements taken from patent US20230295096A1, “PYRAZOLE CARBOXAMIDE COMPOUNDS FOR TREATMENT OF HBV” (ASSEMBLY BIOSCIENCES, INC., priority 2020, published 2023).

The compounds below were run on HBV (assay: Viral load production from HepAD38 cells, qPCR of the HBV core sequence in supernatant). Conditions: Hepatitis B virus, HePAD38, 120 h, HepAD38 cells, 5 days, HBV DNA in supernatant by qPCR; Table 1 ranges; read-out: Activity (viral load lowering EC50).
Assay type: cell-based
How it was run: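 EC50 and CC50 come from four-parameter logistic fits of supernatant HBV core DNA (TaqMan qPCR, DNA standards, compared with DMSO wells) and of CellTiter-Glo luminescence.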

Q: For `Cn1nc(C2CC3CC(CNC(=O)C4(C)CCC4)CC3C2)c(C(=O)Nc2ccc(F)c(Cl)c2)c1N` (stereo not shown) [Example 68, 5-Amino-N-(3-chloro-4-fluorophenyl)-1-methyl-3-(5-((1-methylcyclobutane-1-carboxamido)methyl)octahydropentalen-2-yl)-1H-pyrazole-4-carboxamide], which EC50 is on record?
A: < 10 nM

Q: How did the EC50 turn out when `Cn1nc(C2CC3CC(CNC(=O)C45CC(C4)C5)CC3C2)c(C(=O)Nc2ccc(F)c(Cl)c2)c1N` (stereo not shown) [Example 69, 5-Amino-3-(5-((bicyclo[1.1.1]pentane-1-carboxamido)methyl)octahydropentalen-2-yl)-N-(3-chloro-4-fluorophenyl)-1-methyl-1H-pyrazole-4-carboxamide] was run?
A: < 10 nM

Q: How did the EC50 turn out when `Cn1nc(C2CC3CC(CNC(=O)C(C)(C)C4CCN(C(=O)OC(C)(C)C)CC4)CC3C2)c(C(=O)Nc2ccc(F)c(Cl)c2)c1N` (stereo not shown) [Example 70, tert-Butyl 4-(1-(((5-(5-amino-4-((3-chloro-4-fluorophenyl)carbamoyl)-1-methyl-1H-pyrazol-3-yl)octahydropentalen-2-yl)methyl)amino)-2-methyl-1-oxopropan-2-yl)piperidine-1-carboxylate] was run?
A: 10 to 50 nM

Q: With `Cn1nc(C2CC3CC(CNC(=O)CCCN4CCCCC4)CC3C2)c(C(=O)Nc2ccc(F)c(Cl)c2)c1N` (stereo not shown) [Example 71, 5-Amino-N-(3-chloro-4-fluorophenyl)-1-methyl-3-(5-((4-(piperidin-1-yl)butanamido)methyl)octahydropentalen-2-yl)-1H-pyrazole-4-carboxamide] as the compound, how does the EC50 read?
A: 10 to 50 nM

Q: With `Cn1nc(C2CC3CC(CNC(=O)CCCN4CCOCC4)CC3C2)c(C(=O)Nc2ccc(F)c(Cl)c2)c1N` (stereo not shown) [Example 72, 5-Amino-N-(3-chloro-4-fluorophenyl)-1-methyl-3-(5-((4-morpholinobutanamido)methyl)octahydropentalen-2-yl)-1H-pyrazole-4-carboxamide] as the compound, how does the EC50 read?
A: < 10 nM

Q: `Cn1nc(C2CC3CC(CNC(=O)CCCCCNC(=O)OC(C)(C)C)CC3C2)c(C(=O)Nc2ccc(F)c(Cl)c2)c1N` (stereo not shown) [Example 73, tert-Butyl (6-(((5-(5-amino-4-((3-chloro-4-fluorophenyl)carbamoyl)-1-methyl-1H-pyrazol-3-yl)octahydropentalen-2-yl)methyl)amino)-6-oxohexyl)carbamate] was tested. Which EC50 did it give?
A: 10 to 50 nM

Q: How did the EC50 turn out when `Cn1nc(C2CC3CC(CNC(=O)COCCOCCNC(=O)OC(C)(C)C)CC3C2)c(C(=O)Nc2ccc(F)c(Cl)c2)c1N` (stereo not shown) [Example 74, tert-Butyl (2-(2-(2-(((5-(5-amino-4-((3-chloro-4-fluorophenyl)carbamoyl)-1-methyl-1H-pyrazol-3-yl)octahydropentalen-2-yl)methyl)amino)-2-oxoethoxy)ethoxy)ethyl)carbamate] was run?
A: < 10 nM

Q: How did the EC50 turn out when `Cn1nc(C2CC3CC(CNC(=O)C4CCNCC4)CC3C2)c(C(=O)Nc2ccc(F)c(Cl)c2)c1N` (stereo not shown) [Example 75, N-((5-(5-Amino-4-((3-chloro-4-fluorophenyl)carbamoyl)-1-methyl-1H-pyrazol-3-yl)octahydropentalen-2-yl)methyl)piperidine-4-carboxamide] was run?
A: 10 to 50 nM

Q: For `Cn1nc(C2CC3CC(CNC(=O)C4CCCCC4)CC3C2)c(C(=O)Nc2ccc(F)c(Cl)c2)c1N` (stereo not shown) [Example 76, 5-Amino-N-(3-chloro-4-fluorophenyl)-3-(5-(cyclohexanecarboxamidomethyl)octahydropentalen-2-yl)-1-methyl-1H-pyrazole-4-carboxamide], which EC50 is on record?
A: 10 to 50 nM

Q: `COC(=O)C12CCC(C(=O)NCC3CC4CC(c5nn(C)c(N)c5C(=O)Nc5ccc(F)c(Cl)c5)CC4C3)(CC1)CC2` (stereo not shown) [Example 77, Methyl 4-(((5-(5-amino-4-((3-chloro-4-fluorophenyl)carbamoyl)-1-methyl-1H-pyrazol-3-yl)octahydropentalen-2-yl)methyl)carbamoyl)bicyclo[2.2.2]octane-1-carboxylate] was tested. Which EC50 did it give?
A: 50 to 500 nM

Q: How did the EC50 turn out when `Cn1nc(C2CC3CC(CNC(=O)C45CCN(CC4)CC5)CC3C2)c(C(=O)Nc2ccc(F)c(Cl)c2)c1N` (stereo not shown) [Example 78, N-((5-(5-Amino-4-((3-chloro-4-fluorophenyl)carbamoyl)-1-methyl-1H-pyrazol-3-yl)octahydropentalen-2-yl)methyl)quinuclidine-4-carboxamide] was run?
A: 50 to 500 nM

Q: Which EC50 does the source give for `Cn1nc(C2CC3CC(CNC(=O)C(C)(C)C4CCNCC4)CC3C2)c(C(=O)Nc2ccc(F)c(Cl)c2)c1N` (stereo not shown) [Example 79, 5-Amino-N-(3-chloro-4-fluorophenyl)-1-methyl-3-(5-((2-methyl-2-(piperidin-4-yl)propanamido)methyl)octahydropentalen-2-yl)-1H-pyrazole-4-carboxamide] here?
A: 50 to 500 nM

Q: With `Cn1nc(C2CC3CC(CNC(=O)C4CCNC(=O)C4)CC3C2)c(C(=O)Nc2ccc(F)c(Cl)c2)c1N` (stereo not shown) [Example 80, N-((5-(5-Amino-4-((3-chloro-4-fluorophenyl)carbamoyl)-1-methyl-1H-pyrazol-3-yl)octahydropentalen-2-yl)methyl)-2-oxopiperidine-4-carboxamide] as the compound, how does the EC50 read?
A: 50 to 500 nM

Q: `Cn1nc(C2CC3CC(CNC(=O)CCCCCN)CC3C2)c(C(=O)Nc2ccc(F)c(Cl)c2)c1N` (stereo not shown) [Example 81, 5-Amino-3-(5-((6-aminohexanamido)methyl)octahydropentalen-2-yl)-N-(3-chloro-4-fluorophenyl)-1-methyl-1H-pyrazole-4-carboxamide] was tested. Which EC50 did it give?
A: 50 to 500 nM

Q: How did the EC50 turn out when `Cn1nc(C2CC3CC(CNC(=O)COCCOCCN)CC3C2)c(C(=O)Nc2ccc(F)c(Cl)c2)c1N` (stereo not shown) [Example 82, 5-Amino-3-(5-((2-(2-(2-aminoethoxy)ethoxy)acetamido)methyl)octahydropentalen-2-yl)-N-(3-chloro-4-fluorophenyl)-1-methyl-1H-pyrazole-4-carboxamide] was run?
A: 50 to 500 nM

Q: For `CNS(=O)(=O)NCC1CC2CC(c3nn(C)c(N)c3C(=O)Nc3ccc(F)c(Cl)c3)CC2C1` (stereo not shown) [Example 83, 5-Amino-N-(3-chloro-4-fluorophenyl)-1-methyl-3-(5-(((N-methylsulfamoyl)amino)methyl)octahydropentalen-2-yl)-1H-pyrazole-4-carboxamide], which EC50 is on record?
A: < 10 nM

Q: `Cn1nc(C2CC3CC(CNS(=O)(=O)c4ccc(OC(F)(F)F)cc4)CC3C2)c(C(=O)Nc2ccc(F)c(Cl)c2)c1N` (stereo not shown) [Example 84, 5-Amino-N-(3-chloro-4-fluorophenyl)-1-methyl-3-(5-(((4-(trifluoromethoxy)phenyl)sulfonamido)methyl)octahydropentalen-2-yl)-1H-pyrazole-4-carboxamide] was tested. Which EC50 did it give?
A: 50 to 500 nM

Q: `Cn1nc(C2CC3CC(CNS(=O)(=O)c4ccc(F)cc4F)CC3C2)c(C(=O)Nc2ccc(F)c(Cl)c2)c1N` (stereo not shown) [Example 85, 5-Amino-N-(3-chloro-4-fluorophenyl)-3-(5-(((2,4-difluorophenyl)sulfonamido)methyl)octahydropentalen-2-yl)-1-methyl-1H-pyrazole-4-carboxamide] was tested. Which EC50 did it give?
A: < 10 nM

Q: For `Cn1nc(C2CC3CC(CNS(=O)(=O)c4ccc(Cl)nc4)CC3C2)c(C(=O)Nc2ccc(F)c(Cl)c2)c1N` (stereo not shown) [Example 86, 5-Amino-N-(3-chloro-4-fluorophenyl)-3-(5-(((6-chloropyridine)-3-sulfonamido)methyl)octahydropentalen-2-yl)-1-methyl-1H-pyrazole-4-carboxamide], which EC50 is on record?
A: < 10 nM

Q: Which EC50 does the source give for `CCS(=O)(=O)NCC1CC2CC(c3nn(C)c(N)c3C(=O)Nc3ccc(F)c(Cl)c3)CC2C1` (stereo not shown) [Example 87, 5-Amino-N-(3-chloro-4-fluorophenyl)-3-(5-(ethylsulfonamidomethyl)octahydropentalen-2-yl)-1-methyl-1H-pyrazole-4-carboxamide] here?
A: < 10 nM

Q: With `Cn1nc(C2CC3CC(CNS(C)(=O)=O)CC3C2)c(C(=O)Nc2ccc(F)c(Cl)c2)c1N` (stereo not shown) [Example 88, 5-Amino-N-(3-chloro-4-fluorophenyl)-1-methyl-3-(5-(methylsulfonamidomethyl)octahydropentalen-2-yl)-1H-pyrazole-4-carboxamide] as the compound, how does the EC50 read?
A: < 10 nM

Q: How did the EC50 turn out when `CCCS(=O)(=O)NCC1CC2CC(c3nn(C)c(N)c3C(=O)Nc3ccc(F)c(Cl)c3)CC2C1` (stereo not shown) [Example 89, 5-Amino-N-(3-chloro-4-fluorophenyl)-1-methyl-3-(5-(propylsulfonamidomethyl)octahydropentalen-2-yl)-1H-pyrazole-4-carboxamide] was run?
A: < 10 nM

Q: `CC(C)S(=O)(=O)NCC1CC2CC(c3nn(C)c(N)c3C(=O)Nc3ccc(F)c(Cl)c3)CC2C1` (stereo not shown) [Example 90, 5-Amino-N-(3-chloro-4-fluorophenyl)-1-methyl-3-(5-(((1-methylethyl)sulfonamido)methyl)octahydropentalen-2-yl)-1H-pyrazole-4-carboxamide] was tested. Which EC50 did it give?
A: < 10 nM

Q: For `Cn1nc(C2CC3CC(CNS(=O)(=O)C4CCC4)CC3C2)c(C(=O)Nc2ccc(F)c(Cl)c2)c1N` (stereo not shown) [Example 91, 5-Amino-N-(3-chloro-4-fluorophenyl)-3-(5-(cyclobutanesulfonamidomethyl)octahydropentalen-2-yl)-1-methyl-1H-pyrazole-4-carboxamide], which EC50 is on record?
A: 10 to 50 nM

Q: With `Cn1nc(C2CC3CC(CNS(=O)(=O)C4CCCC4)CC3C2)c(C(=O)Nc2ccc(F)c(Cl)c2)c1N` (stereo not shown) [Example 92, 5-Amino-N-(3-chloro-4-fluorophenyl)-3-(5-(cyclopentanesulfonamidomethyl)octahydropentalen-2-yl)-1-methyl-1H-pyrazole-4-carboxamide] as the compound, how does the EC50 read?
A: 10 to 50 nM

Q: `Cn1nc(C2CC3CC(CNS(=O)(=O)C(F)(F)F)CC3C2)c(C(=O)Nc2ccc(F)c(Cl)c2)c1N` (stereo not shown) [Example 93, 5-Amino-N-(3-chloro-4-fluorophenyl)-1-methyl-3-(5-(((trifluoromethyl)sulfonamido)methyl)octahydropentalen-2-yl)-1H-pyrazole-4-carboxamide] was tested. Which EC50 did it give?
A: 10 to 50 nM

Q: With `Cn1nc(C2CC3CC(CNS(=O)(=O)C4CC4)CC3C2)c(C(=O)Nc2ccc(F)c(Cl)c2)c1N` (stereo not shown) [Example 94, 5-Amino-N-(3-chloro-4-fluorophenyl)-3-(5-(cyclopropanesulfonamidomethyl)octahydropentalen-2-yl)-1-methyl-1H-pyrazole-4-carboxamide] as the compound, how does the EC50 read?
A: < 10 nM

Q: With `Cn1nc(C2CC3CC(CNS(=O)(=O)C4(C)CC4)CC3C2)c(C(=O)Nc2ccc(F)c(Cl)c2)c1N` (stereo not drawn) [Example 95, 5-Amino-N-(3-chloro-4-fluorophenyl)-1-methyl-3-(5-(((1-methylcyclopropane)-l-sulfonamido)methyl)octahydropentalen-2-yl)-1H-pyrazole-4-carboxamide] as the compound, how does the EC50 read?
A: < 10 nM
